From PubChem BioAssay (NCI)
Several values for one entry are separate records, joined by “and”; a condition that tells them apart may be missing. Equal values may be shown once.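 Tested at 5 concentrations; 48 h exposure; 96-well plates; endpoints linearly interpolated, else capped at highest concentration. GI50 = concentration required for 50% inhibition of growth. Definition used: TGI = concentration required for complete inhibition of growth.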

Experiments:
Assay in all cases: NCI tumour cell line growth inhibition, 48 h
[1] = system: DU-145 prostate
[2] = system: K-562 leukemia
[3] = system: UO-31 renal
[4] = system: HCC-2998 colon
[5] = system: RXF 393 renal
[6] = system: PC-3 prostate
[7] = system: NCI-H460 lung
[8] = system: NCI/ADR-RES ovarian
[9] = system: HT29 colon
[10] = system: TK-10 renal
[11] = system: M14 melanoma
[12] = system: U251 CNS
[13] = system: MDA-N
[14] = system: SF-268 CNS
[15] = system: RPMI-8226 leukemia
[16] = system: HL-60(TB) leukemia
[17] = system: NCI-H23 lung
[18] = system: LOX IMVI melanoma
[19] = system: A498 renal
[20] = system: SNB-19 CNS
[21] = system: MOLT-4 leukemia
[22] = system: SNB-75 CNS
[23] = system: ACHN renal
[24] = system: SK-MEL-5 melanoma
[25] = system: CCRF-CEM leukemia
[26] = system: CAKI-1 renal
[27] = system: SR leukemia
[28] = system: IGROV1 ovarian
[29] = system: BT-549 breast
[30] = system: HOP-62 NSCLC
[31] = system: SK-MEL-28 melanoma
[32] = system: A549 NSCLC
[33] = system: UACC-257 melanoma
[34] = system: OVCAR-4 ovarian
[35] = system: COLO 205 colon
[36] = system: SK-MEL-2 melanoma
[37] = system: NCI-H522 lung
[38] = system: MDA-MB-435
[39] = system: SF-295 CNS
[40] = system: MALME-3M melanoma
[41] = system: OVCAR-5 ovarian
[42] = system: EKVX NSCLC
[43] = system: MCF7 breast
[44] = system: SW-620 colon
[45] = system: HS 578T breast
[46] = system: MDA-MB-231 breast
[47] = system: SN12C renal
[48] = system: SK-OV-3 ovarian
[49] = system: NCI-H226 lung
[50] = system: SF-539 CNS
[51] = system: 786-0 renal
[52] = system: OVCAR-3 ovarian
[53] = system: OVCAR-8 ovarian
[54] = system: HOP-92 NSCLC
[55] = system: UACC-62 melanoma
[56] = system: T-47D breast
[57] = system: HCT-116 colon
[58] = system: HCT-15 colon
[59] = system: KM12 colon
[60] = system: KM20L2 colon
[61] = system: SNB-78 CNS
[62] = system: DLD-1 colon
[63] = system: DMS 114 small cell lung
[64] = system: M19-MEL melanoma
[65] = system: LXFL 529 NSCLC
[66] = system: XF 498 CNS

CCCCCCCCCCCCCC[C@@H](O)[C@H]1CC[C@H]([C@H]2CC[C@H]([C@H](O)CCCCCC[C@@H](O)CC3=C[C@H](C)OC3=O)O2)O1
GI50 [1]: > 25 µM
TGI [1]: > 25 µM
GI50 [2]: 1.47 µM
TGI [2]: > 25 µM
GI50 [3]: 1.21 µM
TGI [3]: 2.59 µM and > 25 µM
TGI [4]: > 25 µM
GI50 [5]: 2.72 µM
TGI [5]: > 25 µM
GI50 [6]: 2.13 µM
TGI [6]: 7.31 µM and > 25 µM
GI50 [7]: 0.0214 µM
TGI [7]: 4.26 µM and > 25 µM
GI50 [8]: 0.676 µM
TGI [8]: 2.95 µM and > 25 µM
GI50 [9]: > 25 µM
TGI [9]: 3.3 µM and > 25 µM
GI50 [10]: 2.72 µM
TGI [10]: 8.15 µM and > 25 µM
GI50 [11]: 1.74 µM
TGI [11]: 3.44 µM and > 25 µM
GI50 [12]: 2.06 µM
TGI [12]: > 25 µM
GI50 [13]: > 25 µM
TGI [13]: 6.48 µM and > 25 µM
GI50 [14]: 1.69 µM
TGI [14]: 5.04 µM and > 25 µM
GI50 [15]: 2.16 µM
TGI [15]: > 25 µM
GI50 [16]: > 25 µM
TGI [16]: 7.14 µM and > 25 µM
TGI [17]: > 25 µM
TGI [18]: 2.56 µM and > 25 µM
GI50 [19]: 3.27 µM
TGI [19]: > 25 µM
GI50 [20]: 1.75 µM
TGI [20]: 7.71 µM and > 25 µM
GI50 [21]: 2.01 µM
TGI [21]: 8.81 µM and > 25 µM
GI50 [22]: 1.7 µM
TGI [22]: 4.95 µM and > 25 µM
GI50 [23]: 1.02 µM
GI50 [24]: 0.717 µM
TGI [24]: 2.52 µM and > 25 µM
GI50 [25]: 2.06 µM
TGI [25]: > 25 µM
GI50 [26]: 1.75 µM
TGI [26]: 5.01 µM and > 25 µM
GI50 [27]: 5.88 µM
TGI [27]: 6.05 µM and > 25 µM
GI50 [28]: 2.61 µM
TGI [28]: 8.75 µM and > 25 µM
GI50 [29]: 1.88 µM
TGI [29]: 4.86 µM and > 25 µM
GI50 [30]: 2.74 µM
TGI [30]: > 25 µM
GI50 [31]: 2.9 µM
TGI [31]: > 25 µM
GI50 [32]: 1.59 µM
TGI [32]: > 25 µM
GI50 [33]: 1.62 µM
TGI [33]: 6.01 µM and > 25 µM
TGI [34]: > 25 µM
GI50 [35]: 1.52 µM
TGI [35]: 3.06 µM and > 25 µM
GI50 [36]: 1.52 µM
TGI [36]: 3.86 µM and > 25 µM
TGI [37]: > 25 µM
TGI [38]: > 25 µM
GI50 [39]: 1.18 µM
TGI [39]: > 25 µM
TGI [40]: > 25 µM
GI50 [41]: 4.61 µM
TGI [41]: > 25 µM
GI50 [42]: 1.68 µM
TGI [42]: 9.27 µM and > 25 µM
GI50 [43]: 1.14 µM
TGI [43]: 3.47 µM and > 25 µM
GI50 [44]: 2.44 µM
TGI [44]: > 25 µM
GI50 [45]: > 25 µM
TGI [45]: 3.15 µM and > 25 µM
GI50 [46]: 2.31 µM
TGI [46]: 8.9 µM and > 25 µM
GI50 [47]: > 25 µM
TGI [47]: 6.47 µM and > 25 µM
TGI [48]: > 25 µM
GI50 [49]: 1.71 µM
TGI [49]: 5.04 µM and > 25 µM
GI50 [50]: 2.25 µM
TGI [50]: 6.85 µM and > 25 µM
GI50 [51]: 4.31 µM
TGI [51]: > 25 µM
GI50 [52]: 1.53 µM
TGI [52]: 3.21 µM and > 25 µM
GI50 [53]: > 25 µM
TGI [53]: 3.94 µM and > 25 µM
GI50 [54]: > 25 µM
TGI [54]: 8.37 µM and > 25 µM
GI50 [55]: > 25 µM
TGI [55]: 4.5 µM and > 25 µM
GI50 [56]: 2.14 µM
TGI [56]: > 25 µM
GI50 [57]: 2.2 µM
TGI [57]: > 25 µM
GI50 [58]: 2.42 µM
TGI [58]: 5.38 µM and > 25 µM
GI50 [59]: 1.55 µM
TGI [59]: 4.1 µM and > 25 µM

CC(=O)NNc1nc(C)c(C(=O)NNC(=O)C(=O)Nc2ccc(Cl)cc2Cl)s1
TGI [2]: 50.2 µM
TGI [3]: 98.2 µM
TGI [4]: > 100 µM
TGI [9]: > 100 µM
TGI [10]: > 100 µM
TGI [11]: > 100 µM
TGI [12]: 82.6 µM
TGI [60]: > 100 µM
TGI [14]: 78.6 µM
TGI [15]: > 100 µM
TGI [16]: 99.2 µM
TGI [17]: 96.4 µM
TGI [18]: > 100 µM
TGI [20]: > 100 µM
TGI [21]: 57 µM
TGI [23]: 87.9 µM
TGI [61]: > 100 µM
TGI [24]: > 100 µM
TGI [25]: 56.2 µM
TGI [26]: 75.5 µM
TGI [28]: > 100 µM
TGI [30]: > 100 µM
TGI [31]: > 100 µM
TGI [62]: > 100 µM
TGI [32]: > 100 µM
TGI [63]: > 100 µM
TGI [33]: 83.4 µM
TGI [34]: 56.8 µM
TGI [35]: > 100 µM
TGI [64]: > 100 µM
TGI [36]: > 100 µM
TGI [37]: 52.8 µM
TGI [39]: > 100 µM
TGI [40]: > 100 µM
TGI [41]: > 100 µM
TGI [42]: > 100 µM
TGI [44]: 50.2 µM
TGI [47]: > 100 µM
TGI [48]: > 100 µM
TGI [49]: > 100 µM
TGI [50]: 99.5 µM
TGI [51]: > 100 µM
TGI [65]: > 100 µM
TGI [52]: 50.5 µM
TGI [66]: > 100 µM
TGI [53]: > 100 µM
TGI [54]: 70.9 µM
TGI [55]: 57.4 µM
TGI [57]: > 100 µM
TGI [58]: > 100 µM
TGI [59]: > 100 µM
